In US12187723B2 (BRISTOL-MYERS SQUIBB COMPANY, priority 2019, dated 2025):
pIC50: −log10 of the molar value. Structures can show the parent of a compound that is named as a salt.

Key:
human TLR8 = molecular target: T1, human TLR8 (Homo sapiens, UniProt Q9NR97); test: TLR8 inhibition reporter assay (HEK-Blue SEAP); format: cell-based; conditions: HEK-Blue cells overexpressing human TLR8, R848 15.9 μM, 22 hour incubation
T1 construct: host or cells: HEK-Blue cells
T1 sequence (Q9NR97 27-1041): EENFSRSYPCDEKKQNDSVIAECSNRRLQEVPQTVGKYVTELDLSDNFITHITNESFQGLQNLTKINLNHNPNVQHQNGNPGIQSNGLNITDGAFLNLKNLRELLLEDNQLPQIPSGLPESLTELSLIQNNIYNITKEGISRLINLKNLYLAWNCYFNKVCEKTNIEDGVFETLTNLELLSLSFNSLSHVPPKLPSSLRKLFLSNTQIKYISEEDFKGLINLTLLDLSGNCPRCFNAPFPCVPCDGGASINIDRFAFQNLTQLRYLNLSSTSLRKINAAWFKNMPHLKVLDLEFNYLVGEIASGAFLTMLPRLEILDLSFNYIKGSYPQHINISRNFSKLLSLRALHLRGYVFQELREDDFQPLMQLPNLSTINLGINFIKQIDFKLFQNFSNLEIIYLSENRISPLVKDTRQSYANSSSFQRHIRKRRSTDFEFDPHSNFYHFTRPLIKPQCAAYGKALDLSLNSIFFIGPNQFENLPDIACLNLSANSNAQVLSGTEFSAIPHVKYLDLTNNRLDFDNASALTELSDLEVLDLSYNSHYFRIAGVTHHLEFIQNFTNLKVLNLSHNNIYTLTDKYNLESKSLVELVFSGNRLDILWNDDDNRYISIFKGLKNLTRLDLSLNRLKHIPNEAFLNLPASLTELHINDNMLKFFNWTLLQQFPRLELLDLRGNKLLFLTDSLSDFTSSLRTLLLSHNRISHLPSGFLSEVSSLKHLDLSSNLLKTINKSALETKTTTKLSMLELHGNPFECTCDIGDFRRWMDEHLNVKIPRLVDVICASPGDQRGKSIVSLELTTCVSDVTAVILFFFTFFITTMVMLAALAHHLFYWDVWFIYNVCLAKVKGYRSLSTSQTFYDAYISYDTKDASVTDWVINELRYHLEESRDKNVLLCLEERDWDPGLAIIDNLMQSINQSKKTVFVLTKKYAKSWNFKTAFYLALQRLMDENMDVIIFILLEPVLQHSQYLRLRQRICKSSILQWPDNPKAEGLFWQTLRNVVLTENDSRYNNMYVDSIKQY
Procedure, shortened: (§1)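 Dose–response from 0.05 nM to 50 μM was run in HEK-Blue human TLR7, TLR8 and TLR9 reporter cells. After 30 min at room temperature with compound, ligand was added (TLR7 gardiquimod 7.5 μM; TLR8 R848 15.9 μM; TLR9 ODN2006 5 nM) and SEAP measured next day, at 22 h.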

human TLR9 = molecular target: T2, human TLR9 (Homo sapiens, UniProt Q9NR96); test: TLR9 inhibition reporter assay (HEK-Blue SEAP); format: cell-based; conditions: HEK-Blue cells overexpressing human TLR9, ODN2006 5 nM, 22 hour incubation
T2 construct: host or cells: HEK-Blue cells
T2 sequence (Q9NR96 26-1032): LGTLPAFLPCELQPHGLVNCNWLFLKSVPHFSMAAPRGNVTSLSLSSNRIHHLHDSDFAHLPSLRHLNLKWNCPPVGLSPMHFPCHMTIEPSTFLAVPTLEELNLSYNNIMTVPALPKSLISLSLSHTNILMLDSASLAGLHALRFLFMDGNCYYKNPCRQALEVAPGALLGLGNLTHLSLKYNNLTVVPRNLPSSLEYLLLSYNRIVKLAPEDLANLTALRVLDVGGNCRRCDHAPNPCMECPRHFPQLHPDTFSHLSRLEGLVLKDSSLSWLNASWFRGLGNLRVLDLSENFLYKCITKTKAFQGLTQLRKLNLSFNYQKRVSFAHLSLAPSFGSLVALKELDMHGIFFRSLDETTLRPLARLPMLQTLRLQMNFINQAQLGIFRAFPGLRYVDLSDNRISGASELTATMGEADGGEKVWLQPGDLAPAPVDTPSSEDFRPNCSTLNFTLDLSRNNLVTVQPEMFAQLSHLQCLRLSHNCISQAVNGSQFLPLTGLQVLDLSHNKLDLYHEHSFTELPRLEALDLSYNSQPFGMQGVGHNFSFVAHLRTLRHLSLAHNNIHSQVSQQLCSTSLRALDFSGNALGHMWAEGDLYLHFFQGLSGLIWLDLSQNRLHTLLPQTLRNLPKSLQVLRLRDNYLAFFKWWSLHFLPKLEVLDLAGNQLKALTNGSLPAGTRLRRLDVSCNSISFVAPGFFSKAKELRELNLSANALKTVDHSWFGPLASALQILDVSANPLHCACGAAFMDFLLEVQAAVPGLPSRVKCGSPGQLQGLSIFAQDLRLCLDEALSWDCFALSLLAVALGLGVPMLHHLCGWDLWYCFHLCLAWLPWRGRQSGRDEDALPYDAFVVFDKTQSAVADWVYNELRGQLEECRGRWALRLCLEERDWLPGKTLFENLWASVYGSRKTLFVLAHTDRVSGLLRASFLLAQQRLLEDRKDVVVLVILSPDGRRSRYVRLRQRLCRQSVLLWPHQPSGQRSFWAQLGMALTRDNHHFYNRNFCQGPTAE
Procedure, shortened: as §1

Row | pIC50 (human TLR8) | pIC50 (human TLR9) | Compound
1 | 8.73 | 4.39 | COc1c(C)c(-c2cc3[nH]c(=O)n(C4CCC(NCC5(S(C)(=O)=O)CC5)CC4)c3cc2C(C)C)cn2ncnc12 (single isomer, unassigned) [Example 259]
2 | 7.48 | 5.64 | Cc1cc2c(cc1-c1cc(C)c3ncnn3c1)[nH]c(=O)n2[C@H]1CC[C@H](N)CC1 [1 EF, 1-((1r,4r)-4-aminocyclohexyl)-6-methyl-5-(8-methyl-[1,2,4]triazolo[1,5-a]pyridin-6-yl)-1,3-dihydro-2H-benzo[d]imidazol-2-one]
3 | 8.80 | 4.82 | COC1CN(C2CCC(n3c(=O)[nH]c4cc(-c5cn6ncnc6c(C)c5C)c(C(C)C)cc43)CC2)C1 (single isomer, unassigned) [Example 278, 5-(7,8-dimethyl-[1,2,4]triazolo[1,5-a]pyridin-6-yl)-6-isopropyl-1-(4-(3-methoxyazetidin-1-yl)cyclohexyl)-1,3-dihydro-2H-benzo[d]imidazol-2-one]
4 | 8.65 | 4.73 | COc1c(C)c(-c2cc3[nH]c(=O)n(C4CCC(N5CCCOCC5)CC4)c3cc2C(C)C)cn2ncnc12 (single isomer, unassigned) [Example 261, 1-(4-(1,4-oxazepan-4-yl)cyclohexyl)-6-isopropyl-5-(8-methoxy-7-methyl-[1,2,4]triazolo[1,5-a]pyridin-6-yl)-1,3-dihydro-2H-benzo[d]imidazol-2-one]
5 | 9.13 | 5.13 | COC1CN(C2CCC(n3c(=O)[nH]c4cc(-c5cn6ncnc6c(C)c5C)c(C(C)C)cc43)CC2)C1 (single isomer, unassigned) [Example 277, 5-(7,8-dimethyl-[1,2,4]triazolo[1,5-a]pyridin-6-yl)-6-isopropyl-1-(4-(3-methoxyazetidin-1-yl)cyclohexyl)-1,3-dihydro-2H-benzo[d]imidazol-2-one]
6 | 7.50 | 5.67 | Cc1cc2c(cc1-c1cc(C)c3ncnn3c1)[nH]c(=O)n2[C@H]1CC[C@@H](N)CC1 [1 EE]
7 | 7.30 | 5.07 | Cc1cc2c(cc1-c1cc(C)c3ncnn3c1)[nH]c(=O)n2[C@@H]1CCCN(C2CCOCC2)C1 [Example 27, (R)-6-methyl-5-(8-methyl-[1,2,4]triazolo[1,5-a]pyridin-6-yl)-1-(1-(tetrahydro-2H-pyran-4-yl)piperidin-3-yl)-1,3-dihydro-2H-benzo[d]imidazol-2-one]
8 | 8.14 | 4.93 | Cc1c(-c2cc3[nH]c(=O)n([C@@H]4CCCNC4)c3cc2C(C)C)cn2ncnc2c1C [119 FC, (R)-5-(7,8-dimethyl-[1,2,4]triazolo[1,5-a]pyridin-6-yl)-6-isopropyl-1-(piperidin-3-yl)-1,3-dihydro-2H-benzo[d]imidazol-2-one]
9 | 9.05 | 5.37 | COc1cc(-c2cc3[nH]c(=O)n(C4CCC(N5CC[C@H](F)C5)CC4)c3cc2C(C)C)cn2ncnc12 (stereo partly drawn) [Example 286, (S)-1-(4-(3-fluoropyrrolidin-1-yl)cyclohexyl)-6-isopropyl-5-(8-methoxy-[1,2,4]triazolo[1,5-a]pyridin-6-yl)-1,3-dihydro-2H-benzo[d]imidazol-2-one]
10 | 6.65 | 5.58 | COc1cc(-c2cc3[nH]c(=O)n(C4CCNCC4)c3cc2C)cn2ncnc12 [1 E, 5-(8-methoxy-[1,2,4]triazolo[1,5-a]pyridin-6-yl)-6-methyl-1-(piperidin-4-yl)-1H-benzo[d]imidazol-2(3H)-one, TFA]
11 | 8.56 | 4.69 | Cc1c(-c2cc3[nH]c(=O)n(C4CCC(N5CC(F)C5)CC4)c3cc2C(C)C)cn2ncnc2c1C (stereo not drawn) [Example 280, 5-(7,8-dimethyl-[1,2,4]triazolo[1,5-a]pyridin-6-yl)-1-(4-(3-fluoroazetidin-1-yl)cyclohexyl)-6-isopropyl-1,3-dihydro-2H-benzo[d]imidazol-2-one]
12 | 6.36 | 5.99 | Cc1cc(-c2cc(C)c3ncnn3c2)cc2[nH]c(=O)n(C3CCNCC3)c12 [106 F, 7-methyl-5-(8-methyl-[1,2,4]triazolo[1,5-a]pyridin-6-yl)-1-(piperidin-4-yl)-1,3-dihydro-2H-benzo[d]imidazol-2-one]
13 | 10.10 | 5.70 | COc1cc(-c2cc3[nH]c(=O)n(C4CCC(N(C)CCC(F)(F)F)CC4)c3cc2C(C)C)cn2ncnc12 (single isomer, unassigned) [Example 249, 6-isopropyl-5-(8-methoxy-[1,2,4]triazolo[1,5-a]pyridin-6-yl)-1-(4-(methyl(3,3,3-trifluoropropyl)amino)cyclohexyl)-1,3-dihydro-2H-benzo[d]imidazol-2-one]
14 | 9.15 | 4.83 | COc1cc(-c2cc3[nH]c(=O)n(C4CCC(N5CCC(F)(F)CC5)CC4)c3cc2C(C)C)cn2ncnc12 (single isomer, unassigned) [Example 247, 1-(4-(4,4-difluoropiperidin-1-yl)cyclohexyl)-6-isopropyl-5-(8-methoxy-[1,2,4]triazolo[1,5-a]pyridin-6-yl)-1,3-dihydro-2H-benzo[d]imidazol-2-one]
15 | 9.06 | 4.87 | Cc1c(-c2cc3[nH]c(=O)n(C4CCC(N5CCCC(F)C5)CC4)c3cc2C(C)C)cn2ncnc2c1C (stereo not drawn) [Example 273, 5-(7,8-dimethyl-[1,2,4]triazolo[1,5-a]pyridin-6-yl)-1-(4-(3-fluoropiperidin-1-yl)cyclohexyl)-6-isopropyl-1,3-dihydro-2H-benzo[d]imidazol-2-one]
16 | 8.11 | 4.63 | COc1cc(-c2cc3[nH]c(=O)n(C4CCC(N5C[C@@H](F)[C@@H](F)C5)CC4)c3cc2C(C)C)cn2ncnc12 (single isomer, unassigned) [Example 293]
17 | 6.42 | 5.17 | Cc1cc2c(cc1-c1cc(C)c3ncnn3c1)[nH]c(=O)n2[C@@H]1CCCN(CC(C)(C)C)C1 [Example 26, (R)-6-methyl-5-(8-methyl-[1,2,4]triazolo[1,5-a]pyridin-6-yl)-1-(1-neopentylpiperidin-3-yl)-1,3-dihydro-2H-benzo[d]imidazol-2-one]

Row | Compound | pIC50 (human TLR8) | pIC50 (human TLR9)
18 | COc1cc(-c2cc3[nH]c(=O)n(C4CCC(N5C6CCC5COC6)CC4)c3cc2C(C)C)cn2ncnc12 (single isomer, unassigned) [Example 252, 1-(4-(3-oxa-8-azabicyclo[3.2.1]octan-8-yl)cyclohexyl)-6-isopropyl-5-(8-methoxy-[1,2,4]triazolo[1,5-a]pyridin-6-yl)-1,3-dihydro-2H-benzo[d]imidazol-2-one] | 7.61 | < 4.30
